In patent US11964943B2, “3,5-diarylidenyl-n-substituted-piperid-4-one-derived inhibitors of Stat3 pathway activity and uses thereof” (priority 2017, dated 2024):
“Also recorded” adds a separate entry of the source. Where two headings read alike, the source gives them in different places.

What was measured:
[1] = test system: MDA-MB-435 cancer cell line; assay: SRB antiproliferative assay, MDA-MB-435; type: cell-based, human
pStat3^Tyr705 = assay: Immunoblotting of phosphorylated Stat3 in cancer cells; type: cell-based, human; details: for persistence of pStat3 inhibition post treatment: DU145 and A549, after 18 h treatment and drug removal; for inhibition of Stat3 tyrosine (705) phosphorylation (pStat3): DU145 and A549 cells with constitutively active Stat3, 18 h; for concentrations at which pSTAT3 is inhibited: cells with persistent Stat3 activation
Description: (§1) Whole cell lysates were prepared by incubation of harvested, trypsinised cells with CelLytic™ lysis buffer (Sigma-Aldrich) supplemented with 1× protease and 1× phosphatase inhibitors (Roche). Protein quantification was carried out using a protein assay kit (Bio-Rad). 40 μg of the lysates were denatured by heating for 5 min at 95° C. in sample buffer containing 100 mM Tris-Cl (pH 6.8), 4% SDS, 10% 2-mercaptoethanol, 20% glycerol, and 0.02% bromophenol blue. Precision Plus Protein Dual colour standards (Bio-Rad) were used as a molecular weight reference. For the detection of STAT3, pSTAT3, α/β tubulin, cleaved PARP, Bcl-2, Bcl-xL, FANCD2, BRCA1, EME1 and MUS81, proteins were separated on a NuPAGE 7% Tris-acetate gel (Life Technologies) and subsequently transferred to polyvinylidene difluoride membranes (Immobilon®-P transfer membrane; Millipore). […] Membranes were blocked for 1 h at ambient temperature in a blocking buffer containing 5% w/v Bovine Serum Albumin (BSA; Sigma-Aldrich) in 1×TBS, 0.1% Tween-20. All proteins were identified by incubation in a 1:1000 dilution of the respective polyclonal antibodies (Cell signaling) in blocking buffer overnight at 4° C. and subsequent incubation for 1 h with an anti-rabbit or anti-mouse secondary antibody (Cell signalling) at a dilution of 1:1000. The α/β tubulin (1:2000; Cell Signaling) and the anti-phospho-histone H2AX Antibody (1:500; Millipore) were used in the denoted dilutions. Antibody binding was visualized by enhanced chemiluminescence (Amersham) on autoradiography film (Kodak-X-Omat). Alternatively Images were captured by the GelDoc-It Imaging System Fusion Fx7 (Vilber Lourmat, Germany).
as §1, with “Immunoblotting. Whole” for “Whole”, “CelLytic™ M” for “CelLytic™”, “pSTAT3, a/0” for “pSTAT3, α/β”, “in 1×TBS” for “in 1×TBS,”, “(Cell signalling)” for “(Cell signaling)”

[2] = test system: HCT116-oxaliplatin resistant spheroids; assay: CellTiter-Glo 3D cell viability assay, HCT116-oxaliplatin resistant spheroids; type: cell-based; details: 96 h exposure, 3D CellTiter-Glo
Description: For cell spheroid formation, HCT116-oxaliplatin resistant cells, A2780-cisplatin resistant cells, and HT1080 cells were seeded in Corning® Spheroid opaque-walled 96 well Microplates (ultra-low attachment; Nuclon™ Sphera™, Thermofisher) at densities of 2000 cells/well in 100 μl of cell solution and allowed to grow for 4 days, before any manipulation.
Spheroid cells were treated by adding 100 μl of 2-fold the desired compound concentration and incubated at 37° C. for 96 h. At the end of drug incubation, both the plates and the CellTitre-Glo® reagent (previously thawn overnight in the fridge) were equilibrated at room temperature for at least 30 min. Subsequently, 100 μl of cell solution were carefully removed from each well, without disrupting the spheroid and equal volume of CellTitre-Glo® reagent was added. Cell lysis was performed by vigorously shaking the plate for 5 min. To stabilize the luminescent signal, the plate was incubated in the dark at RT for another 30 min before luminescence was recorded on a plate reader. The cell viability of treated samples was normalised to the untreated controls.
The cytotoxicity studies in spheroids were conducted using the CellTiter-Glo® 3D Cell viability assay (Promega) following the instructions of the manufacturer.

B16 (melanoma) cells = assay: MTT cytotoxicity assay, B16 cells
L1210 (lymphoma) cells = assay: MTT cytotoxicity assay, L1210 cells
[3] = molecular target: Stat3 binding to hSIE DNA probe (Homo sapiens, UniProt P40763); assay: Electrophoretic mobility shift assay (EMSA); details: DU145 nuclear extracts
Sequence of Stat3 binding to hSIE DNA probe (P40763 whole entry): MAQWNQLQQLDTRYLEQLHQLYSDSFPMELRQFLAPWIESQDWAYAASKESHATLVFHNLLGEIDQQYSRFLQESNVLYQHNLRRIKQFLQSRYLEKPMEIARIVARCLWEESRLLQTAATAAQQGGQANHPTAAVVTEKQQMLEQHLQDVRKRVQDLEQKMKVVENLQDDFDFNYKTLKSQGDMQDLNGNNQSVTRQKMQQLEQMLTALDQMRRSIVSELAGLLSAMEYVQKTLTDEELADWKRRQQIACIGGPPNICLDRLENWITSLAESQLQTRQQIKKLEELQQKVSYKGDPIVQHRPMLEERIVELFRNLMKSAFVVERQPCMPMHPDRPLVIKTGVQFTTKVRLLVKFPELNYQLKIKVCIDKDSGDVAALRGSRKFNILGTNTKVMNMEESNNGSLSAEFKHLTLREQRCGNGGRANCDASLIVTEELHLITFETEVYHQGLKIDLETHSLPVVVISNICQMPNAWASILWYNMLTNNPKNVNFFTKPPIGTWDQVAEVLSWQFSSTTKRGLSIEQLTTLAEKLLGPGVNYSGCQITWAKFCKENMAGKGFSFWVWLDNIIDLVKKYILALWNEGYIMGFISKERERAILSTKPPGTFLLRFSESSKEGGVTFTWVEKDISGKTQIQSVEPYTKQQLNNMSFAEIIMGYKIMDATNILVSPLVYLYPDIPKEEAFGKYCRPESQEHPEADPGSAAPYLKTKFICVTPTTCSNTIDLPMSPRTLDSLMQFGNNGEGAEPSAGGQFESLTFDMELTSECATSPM
Description: Binding reactions contained 0.9 μg poly(dI-dC). Competition assays were performed by adding 100× excess cold SIE oligonucleotide (lane C) and non-specific competitor (lane M: FIRE; 5′-[sequence]-3′). The DNA-protein complexes were subjected to electrophoresis and resolved on a 5% non-denaturing polyacrylamide gel (30% acrylamide/Bis solution, Bio-Rad) in 0.5% TBE buffer containing 2.5% glycerol (pH 7.8) at 4° C. for 2 h. Once dried, the radioactive signal of the gel was visualized by exposure to Fuji medical X-ray film.
Binding reactions contained 0.9 μg poly(dI-dC). Competition assays were performed by adding 100× excess cold SIE oligonucleotide (lane C) and non-specific competitor (lane M; FIRE; 5′-[sequence]-3′). The DNA-protein complexes were subjected to electrophoresis and resolved on a 5% non-denaturing polyacrylamide gel (30% acrylamide/Bis solution, Bio-Rad) in 0.5% TBE buffer containing 2.5% glycerol (pH 7.8) at 4° C. for 2 h. Once dried, the radioactive signal of the gel was visualized by exposure to Fuji medical X-ray film.

Compound | IC50 ([1]; Homo sapiens, MDA-MB-435, 48 h exposure) [µM] | inhibition of IL-6 induced pStat3 (pStat3^Tyr705; A2780-cisplatin resistant cells, 18 h) | pStat3 inhibition after acute treatment (pStat3^Tyr705; DU145, 5 μM, 1 h) | persistence of pStat3 inhibition post treatment (pStat3^Tyr705) | inhibition of Stat3 tyrosine (705) phosphorylation (pStat3) (pStat3^Tyr705) | inhibition of constitutively active Stat3 (pStat3) (pStat3^Tyr705; HCT116-oxaliplatin resistant cells, 18 h) | pStat3 inhibition in 3D spheroids (pStat3^Tyr705; HCT116-oxaliplatin resistant or A2780-cisplatin resistant spheroids) | concentrations at which pSTAT3 is inhibited (pStat3^Tyr705; 18 h) [μM] | IC50 [2] [µM] | IC50 (B16 (melanoma) cells; Mus musculus, B16, 72 h, read-out: IC50 (μM) B16, 72 h exposure, MTT, mean of three independent experiments) [µM] | IC50 (L1210 (lymphoma) cells; Mus musculus, L1210, 72 h, read-out: IC50 (μM) L1210, 72 h exposure, MTT, mean of three independent experiments) [µM] | concentration blocking Stat3-DNA binding activity [3] [µM] | IC50 ([1]; 48 h exposure) [µM] | IC50 (B16 (melanoma) cells; read-out: IC50 (μM) B16, 72 h exposure, MTT, mean of three independent experiments) [µM] | IC50 (L1210 (lymphoma) cells; read-out: IC50 (μM) L1210, 72 h exposure, MTT, mean of three independent experiments) [µM]
COc1cc(/C=C2\CN(c3ccccc3)C/C(=C\c3cc(OC)c(OC)c(OC)c3)C2=O)cc(OC)c1OC [IE-8, 3,5-Di(3,4,5-trimethoxybenzylidene)-1-phenylpiperidin-4-one] | 0.15 | the most potent inhibitor in this series; also recorded: efficiently inhibited | sufficient to inhibit pStat3 | at least 24 h | inhibits pStat3^Tyr705 levels without affecting the total Stat3 levels; also recorded: efficiently inhibited | the most potent among these inhibitors; also recorded: efficiently inhibited the constitutively active Stat3 | inhibition of pStat3; also recorded: efficiently inhibited | > 1 | 8.5 | 0.3 | 0.36 | ≥ 0.8 | – | – | –
3,5-Di(3,4,5-trimethoxybenzylidene)-1-phenylpiperidin-4-one [IE-8] | – | – | – | at least 24 h | efficiently inhibits | – | – | > 1 | 8.5 | – | – | ≥ 0.8 | 0.15 | ~0.3 | ~0.3
